Source: patent US6852673B2, “Herbicidal pyridine compounds” (BASF Aktiengesellschaft, priority 1998, dated 2005)

How the values were obtained:
Type in all cases: in vivo
[1] = test system: Echinochloa grus galli (ECHCG); experiment: Pre-emergence herbicidal evaluation, barnyard grass
Description: (§1) The pre-emergence herbicidal activity of the compounds of the present invention is exemplified by the following test in which the seeds of a variety of monocotyledonous and dicotyledonous plants are seperately mixed with potting soil and planted on top of approximately one inch of soil in separate pots. After planting, the pots are sprayed with the selected aqueous acetone solution containing test compound in sufficient quantity to provide the equivalent of about 0.0125 to 0.4 kg per hectare of test compound per pot. The treated pots are then placed on greenhouse benches, watered and cared for in accordance with conventional greenhouse procedures. From 2 to 4 weeks after treatment, the tests are terminated and each pot is examined and rated according to the rating system set forth below.

Setaria viridis (SETVI) [2] = experiment: Pre-emergence herbicidal evaluation, green foxtail
Description: as §1

Hordeum vulgare (HORVW) = experiment: Post-emergence herbicidal evaluation, winter barley; conditions: rated 2 to 4 weeks after treatment
Description: (§2) [table] [table] […] These acetone solutions are diluted with water and the resulting formulations applied at dosage levels equivalent of about 0.03 to 0.4 kg per hectare of test compound per pot. After spraying the plants are placed on greenhouse benches and are cared for in the usual manner, commensurate with conventional greenhouse practices. From 2 to 4 weeks after treatment, the seedling plants are examined and rated according to the rating system provided above. A rating 0 indicates growth as untreated control, a rating 9 indicates death.

Oryza sativum (ORYSA) = experiment: Post-emergence herbicidal evaluation, rice; conditions: rated 2 to 4 weeks after treatment
Description: as §2

[3] = test system: Triticum aestivum (TRZAW); experiment: Post-emergence herbicidal evaluation, winter wheat; conditions: rated 2 to 4 weeks after treatment
Description: as §2

Zea mays (ZEAMX) = experiment: Post-emergence herbicidal evaluation, maize; conditions: rated 2 to 4 weeks after treatment
Description: as §2

[4] = test system: Abutilon theophrasti (ABUTH); experiment: Post-emergence herbicidal evaluation, velvetleaf; conditions: rated 2 to 4 weeks after treatment
Description: as §2

[5] = test system: Ambrosia artemiisifolia (AMBEL); experiment: Post-emergence herbicidal evaluation, ragweed; conditions: rated 2 to 4 weeks after treatment
Description: as §2

Galium aparine (GALAP) = experiment: Post-emergence herbicidal evaluation, cleaver; conditions: rated 2 to 4 weeks after treatment
Description: as §2

[6] = test system: Ipomoea hederacea (IPOHE); experiment: Post-emergence herbicidal evaluation, morning glory; conditions: rated 2 to 4 weeks after treatment
Description: as §2

Lamium purpureum (LAMPU) = experiment: Post-emergence herbicidal evaluation, purple deadnettle; conditions: rated 2 to 4 weeks after treatment
Description: as §2

[7] = test system: Matricaria inodora (MATIN); experiment: Post-emergence herbicidal evaluation, mayweed; conditions: rated 2 to 4 weeks after treatment
Description: as §2

Solanum nigrum (SOLNI) = experiment: Post-emergence herbicidal evaluation, black nightshade; conditions: rated 2 to 4 weeks after treatment
Description: as §2

Stellaria media (STEME) = experiment: Post-emergence herbicidal evaluation, chickweed; conditions: rated 2 to 4 weeks after treatment
Description: as §2

[8] = test system: Alopecurus myosuroides (ALOMY); experiment: Post-emergence herbicidal evaluation, black grass; conditions: rated 2 to 4 weeks after treatment
Description: as §2

[9] = test system: Digitaria sanguinalis (DIGSA); experiment: Post-emergence herbicidal evaluation, large crabgrass; conditions: rated 2 to 4 weeks after treatment
Description: as §2

[10] = test system: Echinochloa grus galli (ECHCG); experiment: Post-emergence herbicidal evaluation, barnyard grass; conditions: rated 2 to 4 weeks after treatment
Description: as §2

Setaria viridis (SETVI) [11] = experiment: Post-emergence herbicidal evaluation, green foxtail; conditions: for SETVI rating: rated 2 to 4 weeks after treatment
Description: as §2

weeds = experiment: Post-emergence herbicidal evaluation, overall weed control; conditions: in barley at crop selective doses
Description: as §2

Cc1cc(OCC(F)(F)C(F)(F)F)nc(Oc2cc(C(F)(F)F)nn2C)c1 [Example 7]
ECHCG rating ([1]; dose 0.013 kg/ha): 0 (0 - No effect)
ECHCG rating ([1]; dose 0.025 kg/ha): 1 (1 - Trace effect)
ECHCG rating ([1]; dose 0.1 kg/ha): 4 (4 - Injury)
ECHCG rating ([1]; dose 0.4 kg/ha): 7 (7 - Good herbicidal effect)
SETVI rating (Setaria viridis (SETVI) [2]; dose 0.013 kg/ha): 2 (2 - Slight effect)
SETVI rating (Setaria viridis (SETVI) [2]; dose 0.025 kg/ha): 2 (2 - Slight effect)
SETVI rating (Setaria viridis (SETVI) [2]; dose 0.1 kg/ha): 5 (5 - Definite injury)
SETVI rating (Setaria viridis (SETVI) [2]; dose 0.4 kg/ha): 8 (8 - Approaching complete kill)
HORVW rating (Hordeum vulgare (HORVW); dose 0.03 kg/ha): 2 (2 - Slight effect)
HORVW rating (Hordeum vulgare (HORVW); dose 0.1 kg/ha): 3 (3 - Moderate effect)
HORVW rating (Hordeum vulgare (HORVW); dose 0.4 kg/ha): 3 (3 - Moderate effect)
ORYSA rating (Oryza sativum (ORYSA); dose 0.03 kg/ha): 3 (3 - Moderate effect)
ORYSA rating (Oryza sativum (ORYSA); dose 0.1 kg/ha): 3 (3 - Moderate effect)
ORYSA rating (Oryza sativum (ORYSA); dose 0.4 kg/ha): 3 (3 - Moderate effect)
TRZAW rating ([3]; dose 0.03 kg/ha): 2 (2 - Slight effect)
TRZAW rating ([3]; dose 0.1 kg/ha): 2 (2 - Slight effect)
TRZAW rating ([3]; dose 0.4 kg/ha): 3 (3 - Moderate effect)
ZEAMX rating (Zea mays (ZEAMX); dose 0.03 kg/ha): 2 (2 - Slight effect)
ZEAMX rating (Zea mays (ZEAMX); dose 0.1 kg/ha): 2 (2 - Slight effect)
ZEAMX rating (Zea mays (ZEAMX); dose 0.4 kg/ha): 3 (3 - Moderate effect)
ABUTH rating ([4]; dose 0.03 kg/ha): 2 (2 - Slight effect)
ABUTH rating ([4]; dose 0.4 kg/ha): 2 (2 - Slight effect)
AMBEL rating ([5]; dose 0.03 kg/ha): 1 (1 - Trace effect)
AMBEL rating ([5]; dose 0.1 kg/ha): 2 (2 - Slight effect)
AMBEL rating ([5]; dose 0.4 kg/ha): 5 (5 - Definite injury)
GALAP rating (Galium aparine (GALAP); dose 0.03 kg/ha): 3 (3 - Moderate effect)
GALAP rating (Galium aparine (GALAP); dose 0.1 kg/ha): 5 (5 - Definite injury)
GALAP rating (Galium aparine (GALAP); dose 0.4 kg/ha): 5 (5 - Definite injury)
IPOHE rating ([6]; dose 0.03 kg/ha): 3 (3 - Moderate effect)
IPOHE rating ([6]; dose 0.1 kg/ha): 9 (9 - Complete kill)
IPOHE rating ([6]; dose 0.4 kg/ha): 9 (9 - Complete kill)
LAMPU rating (Lamium purpureum (LAMPU); dose 0.03 kg/ha): 0 (0 - No effect)
LAMPU rating (Lamium purpureum (LAMPU); dose 0.1 kg/ha): 2 (2 - Slight effect)
LAMPU rating (Lamium purpureum (LAMPU); dose 0.4 kg/ha): 6 (6 - Herbicidal effect)
MATIN rating ([7]; dose 0.03 kg/ha): 2 (2 - Slight effect)
MATIN rating ([7]; dose 0.1 kg/ha): 7 (7 - Good herbicidal effect)
MATIN rating ([7]; dose 0.4 kg/ha): 8 (8 - Approaching complete kill)
SOLNI rating (Solanum nigrum (SOLNI); dose 0.03 kg/ha): 0 (0 - No effect)
SOLNI rating (Solanum nigrum (SOLNI); dose 0.1 kg/ha): 0 (0 - No effect)
SOLNI rating (Solanum nigrum (SOLNI); dose 0.4 kg/ha): 0 (0 - No effect)
STEME rating (Stellaria media (STEME); dose 0.03 kg/ha): 2 (2 - Slight effect)
STEME rating (Stellaria media (STEME); dose 0.1 kg/ha): 5 (5 - Definite injury)
STEME rating (Stellaria media (STEME); dose 0.4 kg/ha): 5 (5 - Definite injury)
ALOMY rating ([8]; dose 0.03 kg/ha): 2 (2 - Slight effect)
ALOMY rating ([8]; dose 0.1 kg/ha): 4 (4 - Injury)
ALOMY rating ([8]; dose 0.4 kg/ha): 5 (5 - Definite injury)
DIGSA rating ([9]; dose 0.03 kg/ha): 2 (2 - Slight effect)
DIGSA rating ([9]; dose 0.1 kg/ha): 9 (9 - Complete kill)
DIGSA rating ([9]; dose 0.4 kg/ha): 9 (9 - Complete kill)
ECHCG rating ([10]; dose 0.03 kg/ha): 4 (4 - Injury)
ECHCG rating ([10]; dose 0.1 kg/ha): 7 (7 - Good herbicidal effect)
ECHCG rating ([10]; dose 0.4 kg/ha): 7 (7 - Good herbicidal effect)
SETVI rating (Setaria viridis (SETVI) [11]; dose 0.03 kg/ha): 2 (2 - Slight effect)
SETVI rating (Setaria viridis (SETVI) [11]; dose 0.1 kg/ha): 4 (4 - Injury)
SETVI rating (Setaria viridis (SETVI) [11]; dose 0.4 kg/ha): 8 (8 - Approaching complete kill)
grass control such as Setaria virides (Setaria viridis (SETVI) [11]; in barley at crop selective doses): effective
broad-leaved weed control (weeds): effective
